Measurements reported in patent US10525055B2, “Opioid receptor antagonist prodrugs” (Nirsum Laboratories, Inc., priority 2017, dated 2020).

How the values were obtained:
[1] = Plasma stability assay, rat plasma; type: in vitro ADME; conditions: 37° C., 10 μM
[2] = Physical characterization of solid state drug substance (PLM, XRPD, DSC, TGA); type: physicochemical; conditions: at 120° C., heated from room temperature at 10° C./minute
Description: The analysis of the physical characteristics of drug substances that were in a solid state was conducted using polarized light microscopy (PLM), X-ray powder diffractometer (XRPD) assessment, Differential Scanning calorimetry (DSC) and Thermal Gravimetric Analysis (TGA). For PLM, samples were dispersed in immersion oil and were observed using an ocular lens (10×) and objective lens (20×) under crossed polarizers. For XRPD, samples were run on a diffractometer using the following method: Tube—Cu: K-alpha (λ=1.54179 Å); Generator—Voltage 40 kV, Current 40 mA; Scan scope—3 to 40°; sample rotation speed—15 rpm; scanning rate—10 deg/min. For DSC, ˜1 mg of sample was tested using a crimped aluminum pan and covered by a lid with a hole, heated from room temperature to 300° C. at a speed of 10° C./minute. For TGA, 2-5 mg of sample was placed in an open platinum pan and heated from room temperature to 300° C. at a rate of 10° C./minute.

[3] = Polymorph screening of solid state drug substances; conditions: for XRPD results (Dried): stirred 50 °C 72 hours, solids dried; for Visual observation 50° C. / Visual observation RT: target conc. 100 mg/ml; for Comment: stability of initial crystal form (pattern A): polymorph screen over Heptane
[4] = MTBE, Isopropanol, EtOAc, Acetone

| Compound | % remaining at time point in minutes, 0 min [1] | % remaining at time point in minutes, 15 min [1] | % remaining at time point in minutes, 120 min [1] | % remaining at time point in minutes, 480 min [1] | % remaining at time point in minutes, 1440 min [1] | Thermal Gravimetric Analysis, weight loss [2] | XRPD results (Dried) ([3]; Acetone) | Visual observation 50° C. ([3]; Acetone) | Visual observation RT ([3]; Acetone) | XRPD results (Dried) ([3]; EtOAc) | Visual observation 50° C. ([3]; EtOAc) | Visual observation RT ([3]; EtOAc) | XRPD results (Dried) ([3]; Heptane) | Visual observation 50° C. ([3]; Heptane) | Visual observation RT ([3]; Heptane) | XRPD results (Dried) ([3]; Isopropanol) | Visual observation 50° C. ([3]; Isopropanol) | Visual observation RT ([3]; Isopropanol) | XRPD results (Dried) ([3]; MTBE) | Visual observation 50° C. ([3]; MTBE) | also measured |
| --- | --- | --- | --- | --- | --- | --- | --- | --- | --- | --- | --- | --- | --- | --- | --- | --- | --- | --- | --- | --- | --- |
| CCCCCCCCCCOC(=O)Oc1ccc2c3c1O[C@H]1C(=O)CC[C@@]4(O)C(C2)N(CC2CC2)CC[C@]314 [Compound 10, (4aS,7aR,12bS)-3-(cyclopropylmethyl)-4a-hydroxy-7-oxo-2,3,4,4a,5,6,7,7a-octahydro-1H-4,12-methanobenzofuro[3,2-e]isoquinolin-9-yl decyl carbonate] | 100% | 0% | 0% | 0% | 0% | Weight loss of 0.3047% | Pattern A | Clear | Slurry | Pattern A | Clear | Slurry | Pattern A | Slurry | Slurry | Pattern A | Clear | Slurry | Pattern A | Clear | Visual observation RT ([3]; MTBE): Clear; Comment: stability of initial crystal form (pattern A) [3, 4]: stable form. Same form (pattern A) |
| C=C1CC[C@@]2(O)C3Cc4ccc(OC(=O)OCCCCCCCCCCCCCCCC)c5c4[C@@]2(CCN3CC2CC2)[C@H]1O5 [Compound 19, (4aS,7aS,12bS)-3-(cyclopropylmethyl)-4a-hydroxy-7-methylene-2,3,4,4a,5,6,7,7a-octahydro-1H-4,12-methanobenzofuro[3,2-e]isoquinolin-9-yl hexadecyl carbonate] | 100% | 70.1% | 71.5% | 43.8% | 33.3% | Weight loss of 0.1623% | Pattern A | Clear | Slurry | Pattern A | Clear | Slurry | Pattern A | Clear | Slurry | Pattern A | Clear | Slurry | Pattern A | Clear | Visual observation RT ([3]; MTBE): Clear; Comment: stability of initial crystal form (pattern A) [3, 4]: to be stable fomr. Same crystal form |
